Assay results as given in patent publication US10385024B2, “Compounds and methods for inhibiting NHE-mediated antiport in the treatment of disorders associated with fluid retention or salt overload and gastrointestinal tract disorders” (Ardelyx, Inc., priority 2012, dated 2019).

Columns and labels:
[1] = target: T1, human NHE-3 (Homo sapiens, UniProt P48764); test: Cell-based assay of NHE-3 activity (human NHE3 inhibition assay); details: OK cells with human NHE-3 gene, BCECF pH dye, 0-30 μM test compound
T1 construct: expressed in transfected cells; host or cells: Opossum kidney (OK) cells (ATCC), transfected by electroporation
T1 sequence (P48764 26-834): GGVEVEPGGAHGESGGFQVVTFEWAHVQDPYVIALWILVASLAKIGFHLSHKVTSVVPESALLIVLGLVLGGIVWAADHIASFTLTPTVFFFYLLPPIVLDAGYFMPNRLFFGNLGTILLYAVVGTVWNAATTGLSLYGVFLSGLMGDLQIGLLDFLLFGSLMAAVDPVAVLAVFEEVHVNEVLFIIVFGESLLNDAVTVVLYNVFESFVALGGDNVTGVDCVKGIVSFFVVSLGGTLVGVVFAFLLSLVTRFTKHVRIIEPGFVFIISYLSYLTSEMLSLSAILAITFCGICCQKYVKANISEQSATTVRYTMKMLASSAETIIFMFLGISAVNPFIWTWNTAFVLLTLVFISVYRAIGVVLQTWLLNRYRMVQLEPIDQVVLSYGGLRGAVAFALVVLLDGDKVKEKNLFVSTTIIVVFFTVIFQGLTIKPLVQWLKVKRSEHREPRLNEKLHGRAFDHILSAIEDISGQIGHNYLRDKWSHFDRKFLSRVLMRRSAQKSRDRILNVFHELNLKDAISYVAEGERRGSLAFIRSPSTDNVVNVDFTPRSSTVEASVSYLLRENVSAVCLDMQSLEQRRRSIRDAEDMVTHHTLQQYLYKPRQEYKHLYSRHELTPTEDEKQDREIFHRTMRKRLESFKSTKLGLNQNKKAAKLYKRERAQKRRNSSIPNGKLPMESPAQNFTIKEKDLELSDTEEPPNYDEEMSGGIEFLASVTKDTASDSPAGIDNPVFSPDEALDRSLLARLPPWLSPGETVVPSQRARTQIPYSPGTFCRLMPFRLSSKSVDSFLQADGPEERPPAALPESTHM
Method in brief: (§1)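 Opossum kidney cells electroporated with rat or human NHE-3, loaded with 5 μM BCECF-AM in NH4Cl-HEPES pH 7.4 for 30 min at RT, then acidified 10 min in Na+-free choline HEPES. Na+-dependent pH recovery rates from BCECF fluorescence, averaged over ≥2 replicates, gave pIC50.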

[2] = target: T2, Rat NHE-3 (Rattus norvegicus, UniProt P26433); test: Cell-based assay of NHE-3 activity (rat NHE-3 prompt inhibition); details: OK cells with rat NHE-3 gene, compound present during pH recovery
T2 construct: expressed in transfected cells; host or cells: Opossum kidney (OK) cells (ATCC), transfected by electroporation
T2 sequence (P26433 29-831): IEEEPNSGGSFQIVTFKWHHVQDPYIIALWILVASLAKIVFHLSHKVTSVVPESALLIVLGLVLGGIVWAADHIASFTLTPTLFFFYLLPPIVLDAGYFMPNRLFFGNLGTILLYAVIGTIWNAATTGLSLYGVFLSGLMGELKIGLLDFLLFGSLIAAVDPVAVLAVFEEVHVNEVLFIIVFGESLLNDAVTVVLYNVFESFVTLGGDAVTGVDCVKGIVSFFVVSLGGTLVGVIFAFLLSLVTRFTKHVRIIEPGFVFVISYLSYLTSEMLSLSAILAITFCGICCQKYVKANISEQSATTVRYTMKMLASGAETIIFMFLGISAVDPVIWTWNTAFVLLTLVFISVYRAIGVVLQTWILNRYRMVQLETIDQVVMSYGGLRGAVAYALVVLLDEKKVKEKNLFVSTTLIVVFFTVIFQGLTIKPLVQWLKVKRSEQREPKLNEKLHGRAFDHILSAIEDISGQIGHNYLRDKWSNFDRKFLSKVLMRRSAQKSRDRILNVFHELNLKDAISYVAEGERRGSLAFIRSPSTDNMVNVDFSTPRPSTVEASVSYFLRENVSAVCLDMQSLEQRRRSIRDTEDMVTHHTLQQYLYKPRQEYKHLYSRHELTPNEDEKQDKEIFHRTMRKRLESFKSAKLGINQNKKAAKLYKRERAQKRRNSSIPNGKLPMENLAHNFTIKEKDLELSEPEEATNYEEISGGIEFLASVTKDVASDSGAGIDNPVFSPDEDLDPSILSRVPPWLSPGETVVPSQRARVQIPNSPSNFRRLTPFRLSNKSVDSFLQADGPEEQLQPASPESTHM
Method in brief: as §1

[3] = target: T2, Rat NHE-3; test: Cell-based assay of NHE-3 activity (persistent inhibition, after washout); details: OK cells with rat NHE-3 gene, 60 min incubation, recovery initiated 40 min after compound washout
Method in brief: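 OK cells transiently expressing rat NHE-3 were exposed to 0-30 μM compound in NaCl-HEPES pH 7.4 for 60 min, then washed free of drug before NH4Cl/BCECF-AM loading and acid-loading in Na+-free choline buffer. Na+-dependent pH recovery rates (mean of ≥2 replicates) gave pIC50.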

[4] = system: absorption of sodium from the intestinal lumen; test: Inhibition of intestinal sodium absorption (urinary sodium and fecal form); format: in vivo, Sprague-Dawley rats; details: rat; for response vs control in vivo at 3 mg/kg: 3 mg/kg oral gavage, urine 16 h post-dose, asterisks = significance vs vehicle (*P<0.05, **P<0.01, ***P<0.001), read-out: uNa (% of vehicle); for FFS: fecal form score, scale 1 (normal pellet) to 5 (liquid fecal streams), group average, 3 mg/kg oral, 16 h post-dose, vehicle = 1
Experimental: Urinary sodium concentration and fecal form were measured to assess the ability of selected example compounds to inhibit the absorption of sodium from the intestinal lumen. Eight-week old Sprague-Dawley rats were purchased from Charles River Laboratories (Hollister, Calif.), were housed 2 per cage, and acclimated for at least 3 days before study initiation. Animals were fed Harlan Teklad Global 2018 rodent chow (Indianapolis, Ind.) and water ad libitum throughout the study and maintained in a standard light/dark cycle of 6 AM to 6 PM. On the day of the study, between 4 PM and 5 PM, a group of rats (n=6) were dosed via oral gavage with test compound at the dosage indicated or vehicle (water) at a volume of 10 mL/kg. After dose administration animals were placed in individual metabolic cages where they were also fed the same chow in meal form and watered ad libitum. At 16 h post-dose, the urine samples were collected and fecal form was assessed by two independent observations. Fecal forms were scored according to a common scale associated with increasing fecal water to the wettest observation in the cage's collection funnel (1, normal pellet; 2, pellet adhering to sides of collection funnel due to moisture; 3, loss of normal pellet shape; 4, complete loss of shape with a blotting pattern; 5, liquid fecal streams evident). A rat's fecal form score (FFS) was determined by averaging both observational scores for all rats within a group (n=6). In every study the vehicle group average was 1. For urine samples, the volumes were determined gravimetrically and centrifuged at 3,600×g. The supernatants were diluted 100-fold in deionized Milli-Q water then filtered through a 0.2 μm GHP Pall AcroPrep filter plate (Pall Life Sciences, Ann Arbor, Mich.) prior to analysis by ion chromatography. Ten microliters of each filtered extract was injected onto a Dionex ICS-3000 ion chromatograph system (Dionex, Sunnyvale, Calif.). Cations were separated by an isocratic method using 25 mM methanesulfonic acid as the eluent on an IonPac CS12A 2 mm i.d.×250 mm, 8 μm particle size cation exchange column (Dionex). Sodium was quantified using standards prepared from a cation standard mix containing Li^+, Na^+, NH4^+, K^+, Mg^2+, and Ca^2+ (Dionex). The mean mass of sodium urinated for every group in the 16 h period was determined with the vehicle group usually urinating approximately 21 mg sodium. The urine Na (uNa) for rats in the test groups were expressed as a percentage of the vehicle mean and the means were compared to that of the vehicle group by utilizing a one-way analysis of variance coupled with a Dunnett's post hoc test.

CN(CC(=O)O)CC(=O)NC(CCC(=O)NCCOCCOCCNS(=O)(=O)c1cccc([C@@H]2CN(C)Cc3c(Cl)cc(Cl)cc32)c1)(CCC(=O)NCCOCCOCCNS(=O)(=O)c1cccc([C@@H]2CN(C)Cc3c(Cl)cc(Cl)cc32)c1)CCC(=O)NCCOCCOCCNS(=O)(=O)c1cccc([C@@H]2CN(C)Cc3c(Cl)cc(Cl)cc32)c1 [Example 27]
Human NHE3 pIC50 [1]: C (C NHE3 pIC50 > 7) | Rat NHE3 pIC50 (prompt) [2]: C (C NHE3 pIC50 > 7) | Rat NHE3 pIC50 (persistent) [3]: C (C NHE3 pIC50 > 7) | response vs control in vivo at 3 mg/kg [4]: 35 to 75%

CN1Cc2c(Cl)cc(Cl)cc2C(c2cccc(S(=O)(=O)NCCOCCOCCNC(=O)CCC(CCC(=O)NCCOCCOCCNS(=O)(=O)c3cccc(C4CN(C)Cc5c(Cl)cc(Cl)cc54)c3)(CCC(=O)NCCOCCOCCNS(=O)(=O)c3cccc(C4CN(C)Cc5c(Cl)cc(Cl)cc54)c3)NC(=O)C3CCCCC3C(=O)O)c2)C1 (stereo not shown) [Example 28]
Human NHE3 pIC50 [1]: C (C NHE3 pIC50 > 7) | Rat NHE3 pIC50 (prompt) [2]: B (B NHE3 pIC50 5-7) | Rat NHE3 pIC50 (persistent) [3]: C (C NHE3 pIC50 > 7) | response vs control in vivo at 3 mg/kg [4]: 35 to 75%

CN1Cc2c(Cl)cc(Cl)cc2C(c2cccc(S(=O)(=O)NCCOCCOCCNC(=O)CCC(CCC(=O)NCCOCCOCCNS(=O)(=O)c3cccc(C4CN(C)Cc5c(Cl)cc(Cl)cc54)c3)(CCC(=O)NCCOCCOCCNS(=O)(=O)c3cccc(C4CN(C)Cc5c(Cl)cc(Cl)cc54)c3)NC(=O)N(C)CC(O)C(O)C(O)C(O)CO)c2)C1 (stereo not shown) [Example 29]
Human NHE3 pIC50 [1]: C (C NHE3 pIC50 > 7) | Rat NHE3 pIC50 (prompt) [2]: C (C NHE3 pIC50 > 7) | Rat NHE3 pIC50 (persistent) [3]: C (C NHE3 pIC50 > 7) | response vs control in vivo at 3 mg/kg [4]: 35 to 75%

CN1Cc2c(Cl)cc(Cl)cc2[C@H](c2cccc(S(=O)(=O)NCCOCCOCCNC(=O)CCC(CCC(=O)NCCOCCOCCNS(=O)(=O)c3cccc([C@@H]4CN(C)Cc5c(Cl)cc(Cl)cc54)c3)(CCC(=O)NCCOCCOCCNS(=O)(=O)c3cccc([C@@H]4CN(C)Cc5c(Cl)cc(Cl)cc54)c3)NC(=O)Cn3ccnc3)c2)C1 [Example 30]
Human NHE3 pIC50 [1]: B (B NHE3 pIC50 5-7) | Rat NHE3 pIC50 (prompt) [2]: B (B NHE3 pIC50 5-7) | Rat NHE3 pIC50 (persistent) [3]: C (C NHE3 pIC50 > 7) | response vs control in vivo at 3 mg/kg [4]: > 75%

CC(O)C(NC(=O)NC(CCC(=O)NCCOCCOCCNS(=O)(=O)c1cccc(C2CN(C)Cc3c(Cl)cc(Cl)cc32)c1)(CCC(=O)NCCOCCOCCNS(=O)(=O)c1cccc(C2CN(C)Cc3c(Cl)cc(Cl)cc32)c1)CCC(=O)NCCOCCOCCNS(=O)(=O)c1cccc(C2CN(C)Cc3c(Cl)cc(Cl)cc32)c1)C(N)=O (stereo not shown) [Example 31]
Human NHE3 pIC50 [1]: C (C NHE3 pIC50 > 7) | Rat NHE3 pIC50 (prompt) [2]: C (C NHE3 pIC50 > 7) | Rat NHE3 pIC50 (persistent) [3]: C (C NHE3 pIC50 > 7) | response vs control in vivo at 3 mg/kg [4]: < 35%

CN1Cc2c(Cl)cc(Cl)cc2[C@H](c2cccc(S(=O)(=O)NCCOCCOCCNC(=O)CCC(CCC(=O)NCCOCCOCCNS(=O)(=O)c3cccc([C@@H]4CN(C)Cc5c(Cl)cc(Cl)cc54)c3)(CCC(=O)NCCOCCOCCNS(=O)(=O)c3cccc([C@@H]4CN(C)Cc5c(Cl)cc(Cl)cc54)c3)NC(=O)NCP(=O)(O)O)c2)C1 [Example 32]
Human NHE3 pIC50 [1]: B (B NHE3 pIC50 5-7) | Rat NHE3 pIC50 (prompt) [2]: C (C NHE3 pIC50 > 7) | Rat NHE3 pIC50 (persistent) [3]: C (C NHE3 pIC50 > 7) | FFS [4]: 2 | response vs control in vivo at 3 mg/kg [4]: 35 to 75%

CN1Cc2c(Cl)cc(Cl)cc2[C@H](c2cccc(S(=O)(=O)NCCOCCOCCNC(=O)CCC(CCC(=O)NCCOCCOCCNS(=O)(=O)c3cccc([C@@H]4CN(C)Cc5c(Cl)cc(Cl)cc54)c3)(CCC(=O)NCCOCCOCCNS(=O)(=O)c3cccc([C@@H]4CN(C)Cc5c(Cl)cc(Cl)cc54)c3)NC(=O)N3CCN(CCOCCO)CC3)c2)C1 [Example 33]
Human NHE3 pIC50 [1]: C (C NHE3 pIC50 > 7) | Rat NHE3 pIC50 (prompt) [2]: C (C NHE3 pIC50 > 7) | Rat NHE3 pIC50 (persistent) [3]: C (C NHE3 pIC50 > 7) | FFS [4]: 2 | response vs control in vivo at 3 mg/kg [4]: < 35%

CN1Cc2c(Cl)cc(Cl)cc2[C@H](c2cccc(S(=O)(=O)NCCOCCOCCNC(=O)CCC(CCC(=O)NCCOCCOCCNS(=O)(=O)c3cccc([C@@H]4CN(C)Cc5c(Cl)cc(Cl)cc54)c3)(CCC(=O)NCCOCCOCCNS(=O)(=O)c3cccc([C@@H]4CN(C)Cc5c(Cl)cc(Cl)cc54)c3)NC(=O)NC(CO)CO)c2)C1 [Example 34]
Human NHE3 pIC50 [1]: C (C NHE3 pIC50 > 7) | Rat NHE3 pIC50 (prompt) [2]: C (C NHE3 pIC50 > 7) | Rat NHE3 pIC50 (persistent) [3]: C (C NHE3 pIC50 > 7) | response vs control in vivo at 3 mg/kg [4]: < 35%

CN1Cc2c(Cl)cc(Cl)cc2[C@H](c2cccc(S(=O)(=O)NCCOCCOCCNC(=O)CCC(CCC(=O)NCCOCCOCCNS(=O)(=O)c3cccc([C@@H]4CN(C)Cc5c(Cl)cc(Cl)cc54)c3)(CCC(=O)NCCOCCOCCNS(=O)(=O)c3cccc([C@@H]4CN(C)Cc5c(Cl)cc(Cl)cc54)c3)NC(=O)Cc3nnn[nH]3)c2)C1 [Example 38]
Human NHE3 pIC50 [1]: C (C NHE3 pIC50 > 7) | Rat NHE3 pIC50 (prompt) [2]: B (B NHE3 pIC50 5-7) | Rat NHE3 pIC50 (persistent) [3]: C (C NHE3 pIC50 > 7) | response vs control in vivo at 3 mg/kg [4]: < 35%

CN1Cc2c(Cl)cc(Cl)cc2[C@H](c2cccc(S(=O)(=O)NCCOCCOCCNC(=O)CCC(CCC(=O)NCCOCCOCCNS(=O)(=O)c3cccc([C@@H]4CN(C)Cc5c(Cl)cc(Cl)cc54)c3)(CCC(=O)NCCOCCOCCNS(=O)(=O)c3cccc([C@@H]4CN(C)Cc5c(Cl)cc(Cl)cc54)c3)NC(=O)N[C@@H](CO)C(=O)O)c2)C1 [Example 39]
Human NHE3 pIC50 [1]: C (C NHE3 pIC50 > 7) | Rat NHE3 pIC50 (prompt) [2]: C (C NHE3 pIC50 > 7) | Rat NHE3 pIC50 (persistent) [3]: C (C NHE3 pIC50 > 7) | response vs control in vivo at 3 mg/kg [4]: < 35%

CN1CCN(C(=O)NC(CCC(=O)NCCOCCOCCNS(=O)(=O)c2cccc([C@@H]3CN(C)Cc4c(Cl)cc(Cl)cc43)c2)(CCC(=O)NCCOCCOCCNS(=O)(=O)c2cccc([C@@H]3CN(C)Cc4c(Cl)cc(Cl)cc43)c2)CCC(=O)NCCOCCOCCNS(=O)(=O)c2cccc([C@@H]3CN(C)Cc4c(Cl)cc(Cl)cc43)c2)CC1 [Example 41]
Human NHE3 pIC50 [1]: C (C NHE3 pIC50 > 7) | Rat NHE3 pIC50 (prompt) [2]: B (B NHE3 pIC50 5-7) | Rat NHE3 pIC50 (persistent) [3]: C (C NHE3 pIC50 > 7) | response vs control in vivo at 3 mg/kg [4]: < 35%
